# Test results from US11420980B2, “Salt of pentacyclic compound and crystal thereof” (Eisai R&D Management Co., Ltd., priority 2019, dated 2022).
# Columns and labels:
# [1] = test system: rat primary septal neuron culture; assay: Measurement of acetylcholine (ACh) release in the rat primary septal neuron culture system in the presence of NGF; format: cell-based; conditions: rat primary septal neurons, with NGF, one day after compound addition, HPLC
# Excerpt: Measurement of Acetylcholine (ACh) Release in the Rat Primary Septal Neuron Culture System in the Presence of NGF
# (1) Rat Primary Septal Neuron Culture
# The septal area was isolated from Sprague-Dawley (SD) rats (Charles River Laboratories Japan, Inc.) at a fetal age of 18 days, and cultured. Specifically, fetuses were aseptically removed from pregnant rats under isoflurane anesthesia. The brain was extracted from each fetus, and immersed in ice-cooled L-15 medium (11415-064. Thermo Fisher Scientific), The septal area was dissected from the extracted brain under a stereoscopic microscope. The dissected septal area was subjected to enzyme treatment in an enzyme solution containing 0.25% trypsin (15050-065. Thermo Fisher Scientific) and 0.01% DNase (D5025-1.50KU, Sigma) at 37° C. for 30 minutes, thereby dispersing the cells. In this case, the enzyme reaction was terminated by adding inactivated horse serum (26050-088. Thermo Fisher Scientific). The enzyme-treated solution was centrifuged at 1000 rpm for 3 minutes, and the supernatant was removed. A medium in an amount of 10 mL was added to the obtained cell mass. […]
# One day after compound addition, an amount of ACh release was measured by HPLC in the following manner. […]
# [2] = test system: Choline acetyltransferase (ChAT) mRNA; assay: Measurement of choline acetyltransferase (ChAT) mRNA expression levels in the rat septal area; format: in vivo; conditions: SD male rats, oral, 10 mg/kg, medial septum 24 hours after administration, qPCR
# Method: Measurement of Choline Acetyltransferase (ChAT) mRNA Expression Levels in the Rat Septal Area
# (§1) (1) Compound Administration
# In this study, SD male rats (Charles River Laboratories Japan, Inc. with a body weight of about 250 to 350 g were used. The compound was dissolved in 0.01 mol/L hydrochloric acid, and orally administered.
# At 24 hours after the administration of the compound, the whole brain tissue was collected under pentobarbital anesthesia. The medial septum was isolated from whole brain on ice and frozen with liquid nitrogen, and them stored at −80° C.
# (3) Measurement of ChAT […] Expression Levels
# For RNA purification, RNeasy Plus Mini Kit (#74136: QIAGEN) was used in this study. RNA purification was performed by the method described in the kit, After RNA purification, the total RNA concentration was measured by using QIAxpert Instrument (QIAGEN). cDNA was synthesized using SuperScript® VILO™ cDNA. Synthesis Kit (#11754: Thermo Fisher Scientific). The synthesis of cDNA was performed by the method described in the kit. […] Quantitative polymerase chain reaction (qPCR) was conducted using ABI PRISM® 7900HT (Thermo Fisher Scientific) by a fluorescence probe method. […]
# [3] = test system: acetylcholine (ACh) in cerebrospinal fluid (CSF); assay: Measurement of acetylcholine (ACh) in rat cerebrospinal fluid (CSF); format: in vivo; conditions: Fischer 344 male rats, oral once a day at 10 mg/kg for three days, CSF 24 hours after administration, LC-MS
# Method: Measurement of Acetylcholine (ACh) in Rat Cerebrospinal Fluid (CSF)
# Thus, the changes in acetylcholine in CSF were measured in order to determine the changes in intracerebral acetylcholine by the test compounds.
# (2) Compound Administration
# In this study Fischer 344 male rats (Charles River Laboratories Japan, Inc.) with a body weight of about 150 to 250 g were used. The test compounds were orally administered to the rats once a day at 10 mg/kg for three days. The vehicle used was 0.01 mol/L hydrochloric acid.
# At 24 hours after the administration of the vehicle and the test compounds, the CSF was collected from cisterna magna in a tube containing AchE inhibitors under pentobarbital anesthesia. The collected CSF was centrifuged at 3500×g at 4° C. for 10 minutes and the supernatant was collected. The collected supernatant was frozen with liquid nitrogen, and then stored at −80° C.
# (4) Measurement of Ach by LC-MS
# To 10 μL of the CSF was added 50 μL of acetylcholine-d9 chloride (ACh-d9) at a final concentration of 0.34 nmol/L as an internal standard. […] The supernatant was collected and subjected to LC/MS ([…]), and Ach was detected as precursor ion at m/z 146.050 and as product ion at m/z 87.071 and ACh-d9 as an internal standard was detected as precursor ion at m/z 155.088 and as product ion at m/z 87.000.
# [4] = test system: ChAT positive cells of the medial septal area; assay: Evaluation in human tau P301S transgenic mouse (ChAT positive cells, medial septal area); format: in vivo; conditions: human tau P301S transgenic mice, oral once a day for three months (four- to seven-month-old), Dose: 5 mg/kg, mean±SEM, # significant vs vehicle (83.0 ± 5.8)
# Excerpt: Evaluation in Human Tau P301S Transgenic Mouse
# as §1
# In this study, the test compounds were orally administered to human tau P301S transgenic mice once a day for three months from four-month-old to seven-month-old. The vehicle used was 0.01 mol/L hydrochloric acid.
# At the initial day of the administration (four-month-old) and at the next day of the final administration, mice of vehicle administration group and test compound administration group were anesthetized under pentobarbital (50 mg/kg, i.p.) and perfused with PBS. After the perfusion, the forebrain including the medial septal area was collected and fixed with 4% parafomaldehyde.
# (3) Preparation of Brain Coronal Frozen Section
# The collected forebrain including the medial septal area was immersed and shaken overnight in 4% paraformaldehyde. […]
# The prepared brain coronal frozen sections were stained with DAB (DAB PEROXIDASE SUBSTRATE KIT (Vector, SK-4100)) using a ChAT antibody (Santa Cruz, SC-20672) as a primary antibody. The section image including the medial septal area as shown in “The mouse Brain in stereotaxic coordinates” (COMPACT THIRD EDITION, Keith B. J. Franklin & George Paxinos) was taken by an all-in-one fluorescence microscope (KEYENCE, […]) and […] positive cells around the major axis of the medial septal area were counted by BZ analysis software (KEYENCE). […] Data are expressed as the mean±SEM. […]
# [5] = test system: ChAT positive cells of the medial septal area; assay: Fimbria-fornix lesioned rat model: ChAT positive cells of the medial septal area; format: in vivo; conditions: fimbria-fornix lesioned rats, oral once a day after the operation, % of sham-operated group, mean±SEM, # significant vs vehicle (38.4 ± 5.0)
# Method: (§2) Neuroprotective and Restorative Effect on Cholinergic Neurons Using Fimbria-Formix Lesioned Rat Model
# (§3) (1) Preparation of Fimbria-Fornix Lesioned Rat Model
# (§4) In this studs Sprague-Dawley male rats (Charles River Laboratories Japan, Inc.) with a body weight of about 250 to 350 g were used. The rat was anesthetized under the combination of three drugs: midazolam (2 mg/kg s.c.), medetomidine hydrochloride (0.15 mg/kg s.c.) and butorphanol tartrate (2.5 mg/kg s.c.) and fixed with a brain stereotaxis apparatus (Narishige Co., Ltd.). The cranial was exposed and a hole with 5 mm width was drilled in the skull from the median line 2 mm posterior to Bregma. A razor with 4 mm width was pierced into the Bregma in 5.5 mm depth to cut fimbria-fornix. […]
# (§5) The prepared brain coronal frozen sections were stained with DAB (DAB PEROXIDASE SUBSTRATE KIT (Vector, SK-4100)) using a ChAT antibody (Santa Cruz, SC-20672) or a VAChT antibody (Merck Millipore, ABN100) as a primary antibody. The section image including the medial septal area or hippocampus as shown in “The mouse Brain in stereotaxic coordinates” (COMPACT THIRD EDITION, Keith B. J. Franklin & George Paxinos) was taken by an all-in-one fluorescence microscope (KEYENCE, BZ-X710) and ChAT positive cells of the medial septal area or optical density (OD) in hippocampal VAChT were measured by BZ analysis software (KEYENCE). […] Data are expressed as the mean±SEM. […]
# [6] = test system: hippocampal vesicular acetylcholine transporter (VAChT); assay: Fimbria-fornix lesioned rat model: optical density in hippocampal VAChT; format: in vivo; conditions: fimbria-fornix lesioned rats, oral once a day after the operation, % of sham-operated group, mean±SEM, # significant vs vehicle (19.5 ± 6.4)
# Method: as §2, §3, §4, §5
structure (smiles),measurement,setting,value
"CN1CCc2c(sc3nc4n(c(=O)c23)-c2sccc2C(=O)N(C)C4)C1 [Reference Example 1, 5,10-dimethyl-5,6,9,10,11,12-hexahydropyrido[4″,3″:4′,5′]thieno[2′,3′:4,5]pyrimido[1,2-a]thieno[3,2-f][1,4]diazepine-4,13-dione]",compound concentration showing a 20% increase from the ACh concentration in the buffer of the control group,[1],0.1 µM
same,percentage of ChAT mRNA expression levels increased from the vehicle administration group,[2],56.4%
same,"ACh concentration in CSF, percentage (% of control) versus vehicle administration group",[3],156.8%
same,Ratio (%) of number of ChAT positive cells compared to that in the initial administration,[4],105.3 ± 4.3^# %
same,Number of ChAT positive cells (%) in test compound administration group,[5],74.1 ± 9.3^# %
same,OD in hippocampal VAChT (%) in test compound administration group,[6],66.1 ± 14.2^# %
